Tested on: liver MPS NASH model + TGFβ (PHH, KC and HSC co-cultures, high fat)
Test: Secreted cytokine profile of enhanced liver MPS NASH model with TGFβ dosed with OCA or ELF (Fig 6a)
Assay type: cell-based, human
Details: for IL-1RA production, fold change compared to control / IL-4 production, fold change compared to control / IL-6 production, fold change compared to control / IL-8 production, fold change compared to control / IP-10 production, fold change compared to control / MCP-1 production, fold change compared to control / MIP-1a production, fold change compared to control / MIP-1b production, fold change compared to control / VEGF production, fold change compared to control: vs NASH + TGFβ control
Source text: The systems biology approach identified TGFβ to be a key driver in creating a more advanced NASH phenotype in the MPS model, with enhanced fibrotic markers and reduced liver function. […] Therefore, we explored how effective pharmacological intervention would be for NASH microtissues with high NPC numbers supplemented with TGFβ and exposed them to varying concentrations of OCA and ELF QD as previously described (Supp. Fig. 6a). […] OCA had the greatest effect on IL-1Rα whereas ELF had the greatest effect on MCP-1 reflecting the fact that while both candidate drugs have anti-inflammatory properties, but their mechanisms of action are different. […] Finally, we used our quantitative fibrosis imaging assay to assess the effect of each candidate drug on collagen-1 deposition and α-SMA expression (Fig. 6c). […] Both candidate drugs caused a significant reduction in collagen-1 deposition and α-SMA expression, with the highest concentrations of OCA and ELF causing an 80% reduction in α-SMA expression and a 75% reduction in collagen-1 deposition (Fig. 6c).
Fig. 6 Using enhanced liver MPS NASH model with TGFβ, Obeticholic acid and Elafibranor modulate disease phenotype to a greater extent than in standard NASH model. PHH, KC and HSC co-cultures were cultured in the MPS platform under high-fat conditions and dosed with varying concentrations of Obeticholic acid (OCA) and Elafibranor (ELF) QD or vehicle control for 10 days, following an initial 4-day pre-culture phase. Throughout the compound dosing period TGFβ was also dosed onto all microtissues (NASH only vehicle control samples were also included in the study for comparison, which were not treated with TGFβ or dosed with any compound). a The secreted cytokine profile from treated liver microtissues was compared to determine the effects of each compound on the inflammatory profile of the liver with samples analysed at day 8 and 14 of the culture. Data were normalised by Z-transformation to allow comparison of all analytes (white = undetected). b The expression of fibrosis-associated biomarkers was analysed on day 14 media samples and compared to NASH + TGFβ control samples. c Liver microtissues were stained for collagen-type I, α-SMA, nuclei (DAPI), phalloidin (green) and imaged by confocal microscopy. Representative images are shown and scale bars 200 µm. Staining of microtissues was quantified by measuring total fluorescence intensity throughout individual microtissues, each data point represents an average of all microtissues per MPS culture (min 8, max 20). All datapoints shown with error bars highlighting means ± SD, all data from a minimum of three independent cultures: all comparisons were made to NASH + TGFβ control samples.
Cytokine profiles in cell culture medium samples were also analysed by Luminex array for determination of 38 analytes in total, consisting of cytokines, chemokines, and growth factors using the MILLIPLEX MAP Human Cytokine/Chemokine Magnetic Bead Panel - Premixed 38 Plex (Merck Millipore, USA).
Liver microtissues were cultured for 4 days in HEP-FAT medium, before dosing with obeticholic acid or elafibranor. Both compounds were dissolved in DMSO, diluted in cell culture medium (final DMSO concentration ≤1%) and added to microtissues during a full medium change every two days and in addition on the intervening days compounds were spiked into the media to increase drug concentration back to desired concentrations. Cultures were maintained in the presence of the compound, for a total of 10 days in the presence or absence of TGFβ.

In the case of CSc1ccc(C(=O)/C=C/c2cc(C)c(OC(C)(C)C(=O)O)c(C)c2)cc1 [Elafibranor], the “IL-1RA production, fold change compared to control” value (“IL-1RA production, fold change” below) (1.3 µM, Day 8) is reported as 0.9952 fold change, the “IL-4 production, fold change compared to control” value (shortened to “IL-4 production, fold change”) (1.3 µM, Day 8) is reported as 1.184 fold change and the “IL-6 production, fold change compared to control” value (shortened to “IL-6 production, fold change”) (1.3 µM, Day 8) is reported as 1.1389 fold change. The “IL-8 production, fold change compared to control” value (shortened to “IL-8 production, fold change”) (1.3 µM, Day 8) was 1.023 fold change, the “IP-10 production, fold change compared to control” value (shortened to “IP-10 production, fold change”) (1.3 µM, Day 8) was 1.0718 fold change and the “MCP-1 production, fold change compared to control” value (“MCP-1 production, fold change” below) (1.3 µM, Day 8) was 1.264 fold change. For the same compound, the “MIP-1a production, fold change compared to control” value (from here on “MIP-1a production, fold change”) (1.3 µM, Day 8) was 0.709 fold change, the “MIP-1b production, fold change compared to control” value (1.3 µM, Day 8) was 0.6796 fold change and the “VEGF production, fold change compared to control” value (“VEGF production, fold change” for short) (1.3 µM, Day 8) was 1.105 fold change. For the same compound, the “IL-1RA production, fold change” value (1.3 µM, Day 14) was 0.9067 fold change, the “IL-4 production, fold change” value (1.3 µM, Day 14) was 0.6872 fold change and the “IL-6 production, fold change” value (1.3 µM, Day 14) was 0.5754 fold change. The “IL-8 production, fold change” value (1.3 µM, Day 14) was 0.6606 fold change, the “IP-10 production, fold change” value (1.3 µM, Day 14) was 1.038 fold change and the “MCP-1 production, fold change” value (1.3 µM, Day 14) was 0.8586 fold change. The “MIP-1a production, fold change” value (1.3 µM, Day 14) was 0.6631 fold change, the “VEGF production, fold change” value (1.3 µM, Day 14) was 1.4873 fold change and the “IL-1RA production, fold change” value (13 µM, Day 8) was 1.265 fold change. For the same compound, the “IL-4 production, fold change” value (13 µM, Day 8) was 0.7184 fold change, the “IL-6 production, fold change” value (13 µM, Day 8) was 1.361 fold change and the “IL-8 production, fold change” value (13 µM, Day 8) was 0.9806 fold change. The “IP-10 production, fold change” value (13 µM, Day 8) was 0.6298 fold change, the “MCP-1 production, fold change” value (13 µM, Day 8) was 0.7964 fold change and the “MIP-1a production, fold change” value (13 µM, Day 8) was 0.7122 fold change. The “MIP-1b production, fold change compared to control” value (13 µM, Day 8) was 0.7615 fold change, the “VEGF production, fold change” value (13 µM, Day 8) was 1.5043 fold change and the “IL-1RA production, fold change” value (13 µM, Day 14) was 1.13 fold change. For the same compound, the “IL-4 production, fold change” value (13 µM, Day 14) was 0.4238 fold change, the “IL-6 production, fold change” value (13 µM, Day 14) was 0.6467 fold change and the “IL-8 production, fold change” value (13 µM, Day 14) was 0.4814 fold change. For the same compound, the “IP-10 production, fold change” value (13 µM, Day 14) was 0.5019 fold change, the “MCP-1 production, fold change” value (13 µM, Day 14) was 0.7625 fold change and the “MIP-1a production, fold change” value (13 µM, Day 14) was 0.5355 fold change. For the same compound, the “VEGF production, fold change” value (13 µM, Day 14) was 3.124 fold change, the “IL-1RA production, fold change” value (65 µM, Day 8) was 0.4291 fold change and the “IL-4 production, fold change” value (65 µM, Day 8) was 0.5702 fold change. For the same compound, the “IL-6 production, fold change” value (65 µM, Day 8) was 0.5734 fold change, the “IL-8 production, fold change” value (65 µM, Day 8) was 0.6965 fold change and the “IP-10 production, fold change” value (65 µM, Day 8) was 0.5276 fold change. For the same compound, the “MCP-1 production, fold change” value (65 µM, Day 8) was 0.2341 fold change, the “MIP-1a production, fold change” value (65 µM, Day 8) was 0.4239 fold change and the “VEGF production, fold change” value (65 µM, Day 8) was 1.511 fold change. The “IL-1RA production, fold change” value (65 µM, Day 14) was 0.4779 fold change, the “IL-4 production, fold change” value (65 µM, Day 14) was 0.2046 fold change and the “IL-6 production, fold change” value (65 µM, Day 14) was 0.3326 fold change. The “IL-8 production, fold change” value (65 µM, Day 14) was 0.254 fold change, the “IP-10 production, fold change” value (65 µM, Day 14) was 0.6289 fold change and the “MCP-1 production, fold change” value (65 µM, Day 14) was 0.1593 fold change. The “VEGF production, fold change” value (65 µM, Day 14) was 2.734 fold change and the “cytokine on which the drug had the greatest effect” value (NASH microtissues, high NPC, + TGFβ) was “MCP-1”.
